The numbers were not newly measured in US20060063833A1, “Ready-to-use oxaliplatin solutions” (priority 2004, published 2006), which cites them from elsewhere.

The conditions of data set [1]: at least at concentrations below 1 mg/ml.

As for `O=C1[O][Pt-2]2([NH2+]C3CCCC[C@H]3[NH2+]2)[O]C1=O` (stereo partly drawn) [Oxaliplatin, cis-oxalato-(trans-1,2-cyclohexanediamine)-platinum(II)], under “ethanol”, the solubility in ethanol entry is “practically insoluble”. Besides, the solubility in methanol result (methanol) is recorded as “scarcely soluble”. Further, for the setting “water”, the solubility in water entry is given as “soluble”. For the same compound, the stability in water result in data set [1] is listed as “not very stable”.
